Source: article PMC11681159, “Bee pollen peptides as potent tyrosinase inhibitors with anti-melanogenesis effects in murine b16f10 melanoma cells and zebrafish embryos” (Scientific Reports, 2024)
Entries after “also recorded” stand apart in the source; their conditions may differ. Ends that are not written are not given here.

Columns and labels:
Trp-2 [1] = experiment: Western blot, TRP-2 protein; assay type: cell-based, mouse; settings: B16F10, 48 h
Protocol: Following this process, the cells were lysed using NP40 Cell Lysis Buffer with protease inhibitor cocktail supplementation. Next, 12% sodium dodecyl sulfate poly-acrylamide (SDS-PAGE) gel electrophoresis was used to extract equal quantities of protein from each sample, with subsequent transfer to PVD (polyvinylidene fluoride) membranes (Millipore, Bedford, MA, USA). The membrane was blocked overnight with 3% skimmed milk (w/v) in TBST with 0.5% Tween 20 at 4 °C and then washed thrice in TBST. The rabbit polyclonal anti-TYR antibody (dilution 1:1000), anti-TRP-1 antibody (dilution 1:1000), anti-TRP-2 antibody and anti-MITF antibody (dilution 1:1000) obtained from Abcam (USA), were used respectively to detect the TYR, TRP-1, TRP-2, and MITF bands. After thrice washing again in TBST, secondary antibodies (dilution 1:5000) were added to the membranes for 1 h of incubation at room temperature before another triplicate washing in TBST. Enhanced chemiluminescence horseradish peroxidase (HRP) substrates (GeneDirex, Taiwan) were then used in line with the guidance of the manufacturer to detect bound antibodies, while β-actin antibody was employed to evaluate the loading control. Gel band detection was performed using ImageJ software (version 1.54), available at https://imagej.net/ij/. The software facilitated the identification and quantification of protein expression levels.

zebrafish embryos = experiment: Melanin inhibitory assay in zebrafish embryos; assay type: in vivo; settings: 48 h after fertilization, vs control
Protocol: To perform the test of acute toxicity, a total of 20 fertilized zebrafish embryos were collected at around 4 h after fertilization and added to each well in a 12-well plate. These embryos then underwent treatment using different quantities of […] (2, 4, 6, 8, and 10 µM), while the negative control was distilled water and the positive control was 3,4-dichloroaniline. Incubation of the plate then took place until 48 h after fertilization at a temperature of 28.5 ± 1 °C. The test solutions were refreshed at 24 h after fertilization to allow the counting and removal of any dead embryos. Following exposure, a stereomicroscope (SZX16, Olympus, Japan) was used to record the embryo morphological effects. Meanwhile, a slightly modified version of a previously described melanin inhibitory assay was carried out[30]. The embryos were then homogenized using a cold lysis buffer (PBS pH 7.4, 1% Triton-X and 1% DMSF). The lysate then underwent 10 min of sonication before being placed in a centrifuge for 5 min at 10,000×g. The pellet was then removed from the centrifuge and dissolved in 200 µL of 1 N NaOH for 1 h at a temperature of 85 °C. This sample was subsequently vortexed and placed in the centrifuge for a further 5 min at 10,000×g. A microplate reader (Spectramax M5, Molecular Devices, USA) was then employed to determine the supernatant absorbance at 490 nm. Melanin content levels could then by calibrated by using the protein amount, and were reported in the form of a percentage compared to the untreated control. In the melanin inhibitory assay, the positive control used was phenylthiourea (PTU) solution (0.0015%).

Trp-2 [2] = experiment: qRT-PCR, Trp-2 mRNA; assay type: cell-based, mouse; settings: B16F10, 48 h
Protocol: (§1) A 6-well plate was used to seed B16F10 cells at 1 × 10^5 cells per well prior to overnight incubation in a 5% CO2 humid atmosphere at 37°C. […] Harvesting was conducted via removal of the supernatant, and the cells were rinsed twice in PBS (phosphate-buffered saline). The PureLink™RNA Mini Kit (Invitrogen™, USA) was then used to extract total RNA in line with the guidance of the manufacturer. RNA concentration was assessed at 260 nm with a NanoDrop 2000 UV-Vis spectrophotometer (Thermo Fisher Scientific, Inc.). Oligo-dT primers and a Precision nanoScript II Reverse Transcription Kit (PrimerDesign, Camberley, UK) were used to perform the reverse transcription of 1 µg of total RNA to cDNA in line with the guidance of the manufacturer. MyGo Pro®Real time PCR apparatus (IT-IS International Ltd., Stokesley, UK) was then used to perform the qRT-PCR assays in which 20 µL of PCR reaction contained 1 µL of cDNA, 7 µL of ultrapure water, 1 µL of each primer […], and 10 µL of 2×qPCRBIO SyGreen Mix (PCR Biosystems Ltd, London, UK). This research made use of the following PCR primers: Gapdh forward 5’-[…]-3’, Gapdh reverse 5’-[…]-3’, Tyr forward 5’-[…]-3’, Tyr reverse 5’-[…]-3’, Trp-1 forward 5’-[…]-3’, Trp-1 reverse 5’-[…]-3’, Trp-2 forward 5’-[…]-3’, Trp-2 reverse 5’-[…]-3’, Mitf forward 5’-[…] − 3’, Mitf reverse 5’-[…]-3’. The initial stage of the process of qRT-PCR amplification was the activation step of thermal treatment where a temperature of 95 °C was used for 2 min, with 45 subsequent cycles comprising 10 s at 95 °C, 20 s at 60 °C, and 30 s at 72 °C, before embarking upon the final melting curve from 60 to 97 °C with 1 min for each step. The relative gene expression level could then be calculated via the cycle threshold (Ct) value, while the role of endogenous control for data normalization was occupied by Gapdh (the housekeeping gene). To calculate relative gene expression, the formula given below can be employed:2 [drawing 2]
(§2) where the heightened threshold cycle for the target gene is given as ΔΔCt.

Mitf = experiment: qRT-PCR, Mitf mRNA; assay type: cell-based, mouse; settings: B16F10, 48 h
Protocol: as §1, §2

VDGYPAAGY [VY-9, Val-Asp-Gly-Tyr-Pro-Ala- Ala-Gly-Tyr]
TRP-2 protein level vs control (Trp-2 [1]; 0.2 µM): decreased slightly compared to the control
TRP-2 protein expression vs control (Trp-2 [1]; 1.6 µM): the expression of all proteins decreased compared to the control
concentration from which TRP-2 protein expression gradually decreased (Trp-2 [1]; western blot): 0.2 µM
melanin content (zebrafish embryos; 4 µM): anti-melanogenic effects were observed; also recorded: the lowest among all treatment groups, it did not achieve statistical significance
melanin content (zebrafish embryos; any concentration (2–10 µM)): no significant reduction in melanin levels at any concentration
TRP-2 mRNA level vs control (Trp-2 [2]; 0.2 µM): decreased slightly compared to the control
Trp-2 mRNA expression vs control (Trp-2 [2]; 1.6 µM): significantly reduced the expression levels of all measured genes
concentration from which Trp-2 mRNA expression decreased (Trp-2 [2]; vs control): 0.2 µM
Trp-2 mRNA expression vs arbutin (Trp-2 [2]; VY-9 1.6 µM vs arbutin 0.2 mM): significantly decreased compared to arbutin
Mitf mRNA expression vs control (Mitf; 1.6 µM): significantly reduced the expression levels of all measured genes
concentration from which Mitf mRNA expression decreased (Mitf; vs control): 0.2 µM
Mitf mRNA expression vs arbutin (Mitf; VY-9 1.6 µM vs arbutin 0.2 mM): significantly decreased compared to arbutin
